Values after ≈ are worked out from the molar mass of the structure shown.

As usually defined, the MIC is the lowest concentration found to suppress growth.

The first test concerns Staphylococcus aureus. Description: Antimicrobial activity against Staphylococcus aureus ATCC […] assessed as growth inhibition by agar dilution-streak method. The format is functional. Background: In agar dilution, organisms are placed on agar that contains the substance at set levels.
On to `CCn1c(O)c(C(=O)O)c(=O)c2cc3c(cc21)OCO3`, for which the MIC was above 100 µg/mL.

As for `CCn1cc(C(=O)O)c(=O)c2cccc(C)c21`, the MIC is above 100 µg/mL.

`CCn1cc(C(=O)O)c(=O)c2cc3c(cc21)OCO3` [OXOLINIC ACID]: the MIC came to 5 µg/mL (≈ 19.1 µM).

For the molecule `CCn1cc(C(=O)O)c(=O)c2ccc(C)cc21`, the MIC stood at 40 µg/mL (≈ 173 µM).

Consider `CCn1c(C)c(C(=O)O)c(=O)c2cc3c(cc21)OCO3`, for which the MIC was above 100 µg/mL.

Turning to `CCn1cc(C(=O)O)c(=O)c2cc(C)ccc21`, the MIC amounted to 40 µg/mL (≈ 173 µM).

With `CCn1cc(C(=O)O)c(=O)c2cc(Cl)ccc21`, the MIC came to 100 µg/mL (≈ 397 µM).

Another test has as its system Escherichia coli. The test is described as follows: Antimicrobial activity against Escherichia coli 9637 assessed as growth inhibition by agar dilution-streak method. It is filed as functional.
With `CCn1c(O)c(C(=O)O)c(=O)c2cc3c(cc21)OCO3`, the MIC was above 100 µg/mL.

`CCn1cc(C(=O)O)c(=O)c2cccc(C)c21`: the MIC is above 100 µg/mL.

For the molecule `CCn1cc(C(=O)O)c(=O)c2cc3c(cc21)OCO3` [OXOLINIC ACID], the MIC is 1.25 µg/mL (≈ 4.79 µM).

As to `CCn1cc(C(=O)O)c(=O)c2ccc(C)cc21`, the MIC came out at 2.5 µg/mL (≈ 10.8 µM).

Turning to `CCn1c(C)c(C(=O)O)c(=O)c2cc3c(cc21)OCO3`, the MIC was above 100 µg/mL.

For `CCn1cc(C(=O)O)c(=O)c2cc(C)ccc21`, the MIC is 20 µg/mL (≈ 86.5 µM).

Consider `CCn1cc(C(=O)O)c(=O)c2cc(Cl)ccc21`, for which the MIC was 20 µg/mL (≈ 79.5 µM).

Another test deals with Klebsiella pneumoniae. Description: Antimicrobial activity against Klebsiella pneumoniae 10031 assessed as growth inhibition by agar dilution-streak method. The format is functional.
On to `CCn1c(O)c(C(=O)O)c(=O)c2cc3c(cc21)OCO3`, for which the MIC is above 100 µg/mL.

For `CCn1cc(C(=O)O)c(=O)c2cccc(C)c21`, the MIC was above 100 µg/mL.

Turning to `CCn1cc(C(=O)O)c(=O)c2cc3c(cc21)OCO3` [OXOLINIC ACID], the MIC was below 0.625 µg/mL.

For the molecule `CCn1cc(C(=O)O)c(=O)c2ccc(C)cc21`, the MIC came out at 10 µg/mL (≈ 43.2 µM).

`CCn1c(C)c(C(=O)O)c(=O)c2cc3c(cc21)OCO3`: the minimal inhibitory concentration (MIC) is above 100 µg/mL.

Take `CCn1cc(C(=O)O)c(=O)c2cc(C)ccc21`: the MIC was above 100 µg/mL.

In the case of `CCn1cc(C(=O)O)c(=O)c2cc(Cl)ccc21`, the MIC is 10 µg/mL (≈ 39.7 µM).

Another test concerns Mycolicibacterium smegmatis. Description: Antimicrobial activity against Mycobacterium smegmatis 607 assessed as growth inhibition by agar dilution-streak method. It is filed as functional.
For the molecule `CCn1c(O)c(C(=O)O)c(=O)c2cc3c(cc21)OCO3`, the MIC is above 100 µg/mL.

Turning to `CCn1cc(C(=O)O)c(=O)c2cccc(C)c21`, the MIC is above 100 µg/mL.

On to `CCn1cc(C(=O)O)c(=O)c2cc3c(cc21)OCO3` [OXOLINIC ACID], for which the MIC is above 40 µg/mL.

On to `CCn1cc(C(=O)O)c(=O)c2ccc(C)cc21`, for which the MIC was above 100 µg/mL.

Take `CCn1c(C)c(C(=O)O)c(=O)c2cc3c(cc21)OCO3`: the MIC was above 100 µg/mL.

On to `CCn1cc(C(=O)O)c(=O)c2cc(C)ccc21`, for which the MIC was above 100 µg/mL.

As to `CCn1cc(C(=O)O)c(=O)c2cc(Cl)ccc21`, the MIC came to 100 µg/mL (≈ 397 µM).

The subject of a further test is Candida albicans. Description: Antimicrobial activity against Candida albicans 10231 assessed as growth inhibition by agar dilution-streak method. It is filed as functional.
For the molecule `CCn1c(O)c(C(=O)O)c(=O)c2cc3c(cc21)OCO3`, the MIC is above 100 µg/mL.

For `CCn1cc(C(=O)O)c(=O)c2cccc(C)c21`, the MIC is above 100 µg/mL.

Consider `CCn1cc(C(=O)O)c(=O)c2cc3c(cc21)OCO3` [OXOLINIC ACID], for which the MIC is above 40 µg/mL.

With `CCn1cc(C(=O)O)c(=O)c2ccc(C)cc21`, the minimal inhibitory concentration (MIC) is above 100 µg/mL.

Regarding `CCn1c(C)c(C(=O)O)c(=O)c2cc3c(cc21)OCO3`, the MIC is above 100 µg/mL.

With `CCn1cc(C(=O)O)c(=O)c2cc(C)ccc21`, the MIC is above 100 µg/mL.

In the case of `CCn1cc(C(=O)O)c(=O)c2cc(Cl)ccc21`, the MIC was above 40 µg/mL.

Another test deals with Salmonella gallinarum. Description: Antimicrobial activity against Salmonella gallinarum 9184 assessed as growth inhibition by agar dilution-streak method.
Take `CCn1c(O)c(C(=O)O)c(=O)c2cc3c(cc21)OCO3`: the MIC is above 100 µg/mL.

With `CCn1cc(C(=O)O)c(=O)c2cccc(C)c21`, the MIC is above 100 µg/mL.

Take `CCn1cc(C(=O)O)c(=O)c2cc3c(cc21)OCO3` [OXOLINIC ACID]: the MIC was 1.25 µg/mL (≈ 4.79 µM).

`CCn1cc(C(=O)O)c(=O)c2ccc(C)cc21`: the MIC stood at 1.25 µg/mL (≈ 5.41 µM).

On to `CCn1c(C)c(C(=O)O)c(=O)c2cc3c(cc21)OCO3`, for which the MIC is above 100 µg/mL.

For the molecule `CCn1cc(C(=O)O)c(=O)c2cc(C)ccc21`, the MIC was found to be 20 µg/mL (≈ 86.5 µM).

`CCn1cc(C(=O)O)c(=O)c2cc(Cl)ccc21`: the MIC was 20 µg/mL (≈ 79.5 µM).

The record behind these values is ChEMBL document CHEMBL3244129, “Quinolone antimicrobial agents. 1. Versatile new synthesis of 1-alkyl-1,4-dihydro-4-oxo-3-quinolinecarboxylic acids” (1978).
